Target: T1, CDK9/CyclinT1 (Homo sapiens, UniProt P50750)
T1 construct: purchased ProQinase/Reaction Biology, USA #0371-0345-1
Test: CDK9/T1 ADPGlo kinase assay
Format: biochemical
Details: CDK9/CyclinT1 6 nM, ATP 10 microM, PDKtide 40 microM, 120 min RT
Description: The testing compound was evaluated in 12 concentrations in a 1:3 dilution series, starting from 5microM as the highest concentration.
In a white 384 microplate (Greiner bio-one, Austria #784904,) with 2 microL of 3-fold concentrated CDK9/CyclinT1 (ProQinase/Reaction Biology, USA #0371-0345-1, LOT.: 012), final concentration (f.c.) 6 nM, in 1×kinase buffer, 2 microL of compound (3× fold concentrated in f.c. 1.66% DMSO/H2O) was added and incubated at Room Temperature (RT) for 10 min. Then 2 microL of Substrate/ATP-Mix (3×PDKtide f.c. 40 microM, SignalChem Biotech, Canada via Biozol, Eching, Germany #P10-58, LOT.: L2230-7 and 3×UltraPure ATP f.c. 10 microM (ADP Glo Kinase assay, Promega GmbH, Germany #V9102)) were added, mixed and incubated for 120 min at RT.
After incubation time, 5 microL of ADP Glo reagent (ready to use, ADP Glo Kinase assay, Promega GmbH, Germany #V9102) were added, mixed and incubated for 40 min at RT.
In the last step, 10 microL of ADP Glo Detection reagent (ready to use, ADP Glo Kinase assay, Promega GmbH, Germany #V9102) were added, mixed and incubated for 30 min at RT.
GloMax Discover GM3000 Reader (Promega GmbH, Germany 9700000249) was used for the readout.
The inhibitor concentration was plotted against the luminescence to determine the IC50 using XLFit 5.5 (IDBS, Guildford) to fit to a sigmoidal dose response curve with a variable slope.

T1 sequence (P50750 whole entry): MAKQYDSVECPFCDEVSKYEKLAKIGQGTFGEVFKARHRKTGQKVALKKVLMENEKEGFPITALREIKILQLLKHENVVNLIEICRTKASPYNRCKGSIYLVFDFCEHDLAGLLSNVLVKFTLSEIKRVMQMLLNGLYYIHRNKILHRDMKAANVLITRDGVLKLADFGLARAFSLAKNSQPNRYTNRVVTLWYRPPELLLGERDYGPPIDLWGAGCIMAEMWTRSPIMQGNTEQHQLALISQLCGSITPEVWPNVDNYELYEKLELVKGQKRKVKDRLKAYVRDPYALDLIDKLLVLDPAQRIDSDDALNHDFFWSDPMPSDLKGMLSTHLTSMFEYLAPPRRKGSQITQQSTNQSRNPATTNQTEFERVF
T1 sequence (O60563 whole entry partner): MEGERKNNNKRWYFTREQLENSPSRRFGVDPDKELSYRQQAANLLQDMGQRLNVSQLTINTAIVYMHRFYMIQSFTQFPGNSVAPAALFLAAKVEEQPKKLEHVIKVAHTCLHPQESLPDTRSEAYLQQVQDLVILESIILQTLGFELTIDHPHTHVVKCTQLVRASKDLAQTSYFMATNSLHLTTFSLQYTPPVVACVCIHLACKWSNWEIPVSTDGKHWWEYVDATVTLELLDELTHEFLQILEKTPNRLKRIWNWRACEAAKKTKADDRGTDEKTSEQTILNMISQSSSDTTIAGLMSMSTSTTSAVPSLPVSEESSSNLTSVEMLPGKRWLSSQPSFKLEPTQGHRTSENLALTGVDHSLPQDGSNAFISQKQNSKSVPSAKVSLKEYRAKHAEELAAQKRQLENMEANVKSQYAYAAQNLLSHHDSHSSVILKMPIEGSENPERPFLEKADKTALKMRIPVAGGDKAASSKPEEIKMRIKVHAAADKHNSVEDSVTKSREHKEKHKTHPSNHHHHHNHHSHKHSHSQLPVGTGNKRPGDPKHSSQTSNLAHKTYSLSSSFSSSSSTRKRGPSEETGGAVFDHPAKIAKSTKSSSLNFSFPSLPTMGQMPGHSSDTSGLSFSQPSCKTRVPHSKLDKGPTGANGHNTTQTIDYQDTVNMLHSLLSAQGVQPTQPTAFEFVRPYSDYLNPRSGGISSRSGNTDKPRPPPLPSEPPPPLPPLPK

`CCOc1cc(Nc2nc(-c3c(F)cccc3F)nc3ccnn23)ccc1N1CCN(C)CC1` [Example #8, 2-(2,6-difluorophenyl)-N-(3-ethoxy-4-(4-methylpiperazin-1-yl)phenyl)pyrazolo[1,5-a][1,3,5]triazin-4-amine] and `CCOc1cc(Nc2nc(-c3c(F)cccc3Cl)nc3ccnn23)ccc1N1CCN(C)CC1` [Example #32, 2-(2-chloro-6-fluorophenyl)-N-(3-ethoxy-4-(4-methylpiperazin-1-yl)phenyl)pyrazolo[1,5-a][1,3,5]triazin-4-amine] cannot be ordered by IC50: < 1000 nM for the first, < 1000 nM for the second.

`CCOc1cc(Nc2nc(-c3c(Cl)cccc3Cl)nc3ccnn23)ccc1N1CCN(C)CC1` [Example #12, 2-(2,6-dichlorophenyl)-N-(3-ethoxy-4-(4-methylpiperazin-1-yl)phenyl)pyrazolo[1,5-a][1,3,5]triazin-4-amine] and `CCOc1cc(Nc2nc(-c3c(F)cccc3Cl)nc3ccnn23)ccc1C1CCN(C)CC1` [Example #17, 2-(2-chloro-6-fluorophenyl)-N-(3-ethoxy-4-(1-methylpiperidin-4-yl)phenyl)pyrazolo[1,5-a][1,3,5]triazin-4-amine] cannot be ordered by IC50: < 1000 nM for the first, < 1000 nM for the second.

`CCOc1cc(Nc2nc(-c3c(F)cccc3F)nc3ccnn23)ccc1C1=CCN(C)CC1` [Example #14, 2-(2,6-difluorophenyl)-N-(3-ethoxy-4-(1-methyl-1,2,3,6-tetrahydropyridin-4-yl)phenyl)pyrazolo[1,5-a][1,3,5]triazin-4-amine] and `CCOc1cc(Nc2nc(-c3c(F)cccc3Cl)nc3ccnn23)ccc1C1=CCN(C)CC1` [Example #16, 2-(2-chloro-6-fluorophenyl)-N-(3-ethoxy-4-(1-methyl-1,2,3,6-tetrahydropyridin-4-yl)phenyl)pyrazolo[1,5-a][1,3,5]triazin-4-amine] cannot be ordered by IC50: < 1000 nM for the first, < 1000 nM for the second.

`CCOc1cc(Nc2nc(-c3c(F)cccc3F)nc3ccnn23)ccc1C1CCN(C)CC1` [Example #20, 2-(2,6-difluorophenyl)-N-(3-ethoxy-4-(1-methylpiperidin-4-yl)phenyl)pyrazolo[1,5-a][1,3,5]triazin-4-amine] and `COc1cc(Nc2nc(-c3c(F)cccc3F)nc3ccnn23)ccc1N1CCC(N2CCN(C)CC2)CC1` [Example #62, 2-(2,6-difluorophenyl)-N-(3-methoxy-4-(4-(4-methylpiperazin-1-yl)piperidin-1-yl)phenyl)pyrazolo[1,5-a][1,3,5]triazin-4-amine] cannot be ordered by IC50: < 1000 nM for the first, < 1000 nM for the second.

`O=C(NCC(F)(F)F)c1ccc(Nc2nc(-c3c(F)cccc3Cl)nc3ccnn23)cc1` [Example #22, 4-((2-(2-chloro-6-fluorophenyl)pyrazolo[1,5-a][1,3,5]triazin-4-yl)amino)-N-(2,2,2-trifluoroethyl)benzamide] and `O=C(NCC(F)(F)F)c1ccc(Nc2nc(-c3c(F)cccc3F)nc3ccnn23)cc1` [Example #26, 4-((2-(2,6-difluorophenyl)pyrazolo[1,5-a][1,3,5]triazin-4-yl)amino)-N-(2,2,2-trifluoroethyl)benzamide] cannot be ordered by IC50: < 1000 nM for the first, < 1000 nM for the second.

`CC(C)(C)NC(=O)c1ccc(Nc2nc(-c3c(F)cccc3Cl)nc3ccnn23)cc1` [Example #23, N-(tert-butyl)-4-((2-(2-chloro-6-fluorophenyl)pyrazolo[1,5-a][1,3,5]triazin-4-yl)amino)benzamide] and `CC(C)(C)NC(=O)c1ccc(Nc2nc(-c3c(F)cccc3F)nc3ccnn23)cc1` [Example #27, N-(tert-butyl)-4-((2-(2,6-difluorophenyl)pyrazolo[1,5-a][1,3,5]triazin-4-yl)amino)benzamide] cannot be ordered by IC50: < 1000 nM for the first, < 1000 nM for the second.

`CCNC(=O)c1ccc(Nc2nc(-c3c(F)cccc3Cl)nc3ccnn23)cc1` [Example #24, 4-((2-(2-chloro-6-fluorophenyl)pyrazolo[1,5-a][1,3,5]triazin-4-yl)amino)-N-ethylbenzamide] and `CCNC(=O)c1ccc(Nc2nc(-c3c(F)cccc3F)nc3ccnn23)cc1` [Example #28, 4-((2-(2,6-difluorophenyl)pyrazolo[1,5-a][1,3,5]triazin-4-yl)amino)-N-ethylbenzamide] cannot be ordered by IC50: < 1000 nM for the first, < 1000 nM for the second.

`O=C(NC1CCOCC1)c1ccc(Nc2nc(-c3c(F)cccc3Cl)nc3ccnn23)cc1` [Example #25, 4-((2-(2-chloro-6-fluorophenyl)pyrazolo[1,5-a][1,3,5]triazin-4-yl)amino)-N-(tetrahydro-2H-pyran-4-yl)benzamide] and `O=C(NC1CCOCC1)c1ccc(Nc2nc(-c3c(F)cccc3F)nc3ccnn23)cc1` [Example #29, 4-((2-(2,6-difluorophenyl)pyrazolo[1,5-a][1,3,5]triazin-4-yl)amino)-N-(tetrahydro-2H-pyran-4-yl)benzamide] cannot be ordered by IC50: < 1000 nM for the first, < 1000 nM for the second.

`CCOc1cc(Nc2nc(-c3c(F)cccc3Cl)nc3ccnn23)ccc1C1=CCN(C2CC2)CC1` [Example #34, 2-(2-chloro-6-fluorophenyl)-N-(4-(1-cyclopropyl-1,2,3,6-tetrahydropyridin-4-yl)-3-ethoxyphenyl)pyrazolo[1,5-a][1,3,5]triazin-4-amine] and `COc1ccc(Nc2nc(-c3c(F)cccc3F)nc3ccnn23)cc1OC` [Example #65, 2-(2,6-difluorophenyl)-N-(3,4-dimethoxyphenyl)pyrazolo[1,5-a][1,3,5]triazin-4-amine] cannot be ordered by IC50: < 1000 nM for the first, < 1000 nM for the second.

`CC(C)(C#N)n1cc(Nc2nc(-c3c(F)cccc3Cl)nc3ccnn23)cn1` [Example #36, 2-(4-((2-(2-chloro-6-fluorophenyl)pyrazolo[1,5-a][1,3,5]triazin-4-yl)amino)-1H-pyrazol-1-yl)-2-methylpropanenitrile] and `CC(C)(C)N1CCN(c2ccc(Nc3nc(-c4c(F)cccc4F)nc4ccnn34)cc2)CC1` [Example #45, N-(4-(4-(tert-butyl)piperazin-1-yl)phenyl)-2-(2,6-difluorophenyl)pyrazolo[1,5-a][1,3,5]triazin-4-amine] cannot be ordered by IC50: < 1000 nM for the first, < 200 nM for the second.

`Fc1cccc(F)c1-c1nc(Nc2ccc(N3CCOCC3)cc2)n2nccc2n1` [Example #37, 2-(2,6-difluorophenyl)-N-(4-morpholinophenyl)pyrazolo[1,5-a][1,3,5]triazin-4-amine] and `CN1CCN(c2ccc(Nc3nc(-c4c(F)cccc4F)nc4ccnn34)cc2)CC1` [Example #38, 2-(2,6-difluorophenyl)-N-(4-(4-methylpiperazin-1-yl)phenyl)pyrazolo[1,5-a][1,3,5]triazin-4-amine] cannot be ordered by IC50: < 1000 nM for the first, < 1000 nM for the second.

`CC(=O)N1CCN(c2ccc(Nc3nc(-c4c(F)cccc4F)nc4ccnn34)cc2)CC1` [Example #39, 1-(4-(4-((2-(2,6-difluorophenyl)pyrazolo[1,5-a][1,3,5]triazin-4-yl)amino)phenyl)piperazin-1-yl)ethan-1-one] and `CN1CCN(C2CCN(c3ccc(Nc4nc(-c5c(F)cccc5F)nc5ccnn45)cc3)CC2)CC1` [Example #46, 2-(2,6-difluorophenyl)-N-(4-(4-(4-methylpiperazin-1-yl)piperidin-1-yl)phenyl)pyrazolo[1,5-a][1,3,5]triazin-4-amine] cannot be ordered by IC50: < 1000 nM for the first, < 1000 nM for the second.

`N#Cc1cc(Nc2nc(-c3c(F)cccc3F)nc3ccnn23)ccc1N1CCOCC1` [Example #42, 5-((2-(2,6-difluorophenyl)pyrazolo[1,5-a][1,3,5]triazin-4-yl)amino)-2-morpholinobenzonitrile] and `Fc1cccc(F)c1-c1nc(Nc2ccc(N3CCC(N4CCOCC4)CC3)cc2)n2nccc2n1` [Example #43, 2-(2,6-difluorophenyl)-N-(4-(4-morpholinopiperidin-1-yl)phenyl)pyrazolo[1,5-a][1,3,5]triazin-4-amine] cannot be ordered by IC50: < 1000 nM for the first, < 1000 nM for the second.

`CC(C)(C)N1CCN(c2ccc(Nc3nc(-c4ccccc4F)nc4ccnn34)cc2)CC1` [Example #54, N-(4-(4-(tert-butyl)piperazin-1-yl)phenyl)-2-(2-fluorophenyl)pyrazolo[1,5-a][1,3,5]triazin-4-amine] and `CN1CCN(C2CCN(c3ccc(Nc4nc(-c5ccccc5F)nc5ccnn45)cc3)CC2)CC1` [Example #59, 2-(2-fluorophenyl)-N-(4-(4-(4-methylpiperazin-1-yl)piperidin-1-yl)phenyl)pyrazolo[1,5-a][1,3,5]triazin-4-amine] cannot be ordered by IC50: < 1000 nM for the first, < 1000 nM for the second.

`CN1CCC(N2CCC(n3cc(Nc4nc(-c5c(F)cccc5F)nc5ccnn45)cn3)CC2)CC1` [Example #66, 2-(2,6-difluorophenyl)-N-(1-(1′-methyl-[1,4′-bipiperidin]-4-yl)-1H-pyrazol-4-yl)pyrazolo[1,5-a][1,3,5]triazin-4-amine] and `Fc1cccc(F)c1-c1nc(Nc2cnn(C3CCN(C4CCOCC4)CC3)c2)n2nccc2n1` [Example #67, 2-(2,6-difluorophenyl)-N-(1-(1-(tetrahydro-2H-pyran-4-yl)piperidin-4-yl)-1H-pyrazol-4-yl)pyrazolo[1,5-a][1,3,5]triazin-4-amine] cannot be ordered by IC50: < 200 nM for the first, < 200 nM for the second.

In the case of `Fc1cccc(F)c1-c1nc(Nc2cnn([C@H]3CC[C@H](N4CCOCC4)CC3)c2)n2nccc2n1` [Example #68, 2-(2,6-difluorophenyl)-N-(1-((1r,4r)-4-morpholinocyclohexyl)-1H-pyrazol-4-yl)pyrazolo[1,5-a][1,3,5]triazin-4-amine], the IC50 is reported as < 200 nM.

Reference: US20250019382A1, “NOVEL INHIBITORS OF CYCLIN-DEPENDENT KINASES” (Origenis Gmbh, priority 2021, published 2025)
